# Like-named read-outs stand apart in the source and are kept apart here.
# Tests used:
# [1] = Phase 1 single-dose pharmacokinetics (PN001, PN002/Part I, PN003, PN005); format: in vivo, human; conditions: 8 mg CX-8998
# [2] = Simulated Css and total active moiety, 10 mg BID; set-up: species or system human; conditions: for Css, estimated mean / Steady-state AUC24, estimated mean: M01, CX-8998 10 mg twice daily fasted
# Cav3.3 = target: T1, Cav3.3 (Homo sapiens, UniProt Q9P0X4); test: Cav3.3 FLIPR calcium influx assay (HEK 293 cells); format: cell-based; conditions: for IC50: Cav3.3 FLIPR assay
# T1 construct: expressed in transfected cells; host or cells: HEK 293
# T1 sequence (Q9P0X4 whole entry, species assumed): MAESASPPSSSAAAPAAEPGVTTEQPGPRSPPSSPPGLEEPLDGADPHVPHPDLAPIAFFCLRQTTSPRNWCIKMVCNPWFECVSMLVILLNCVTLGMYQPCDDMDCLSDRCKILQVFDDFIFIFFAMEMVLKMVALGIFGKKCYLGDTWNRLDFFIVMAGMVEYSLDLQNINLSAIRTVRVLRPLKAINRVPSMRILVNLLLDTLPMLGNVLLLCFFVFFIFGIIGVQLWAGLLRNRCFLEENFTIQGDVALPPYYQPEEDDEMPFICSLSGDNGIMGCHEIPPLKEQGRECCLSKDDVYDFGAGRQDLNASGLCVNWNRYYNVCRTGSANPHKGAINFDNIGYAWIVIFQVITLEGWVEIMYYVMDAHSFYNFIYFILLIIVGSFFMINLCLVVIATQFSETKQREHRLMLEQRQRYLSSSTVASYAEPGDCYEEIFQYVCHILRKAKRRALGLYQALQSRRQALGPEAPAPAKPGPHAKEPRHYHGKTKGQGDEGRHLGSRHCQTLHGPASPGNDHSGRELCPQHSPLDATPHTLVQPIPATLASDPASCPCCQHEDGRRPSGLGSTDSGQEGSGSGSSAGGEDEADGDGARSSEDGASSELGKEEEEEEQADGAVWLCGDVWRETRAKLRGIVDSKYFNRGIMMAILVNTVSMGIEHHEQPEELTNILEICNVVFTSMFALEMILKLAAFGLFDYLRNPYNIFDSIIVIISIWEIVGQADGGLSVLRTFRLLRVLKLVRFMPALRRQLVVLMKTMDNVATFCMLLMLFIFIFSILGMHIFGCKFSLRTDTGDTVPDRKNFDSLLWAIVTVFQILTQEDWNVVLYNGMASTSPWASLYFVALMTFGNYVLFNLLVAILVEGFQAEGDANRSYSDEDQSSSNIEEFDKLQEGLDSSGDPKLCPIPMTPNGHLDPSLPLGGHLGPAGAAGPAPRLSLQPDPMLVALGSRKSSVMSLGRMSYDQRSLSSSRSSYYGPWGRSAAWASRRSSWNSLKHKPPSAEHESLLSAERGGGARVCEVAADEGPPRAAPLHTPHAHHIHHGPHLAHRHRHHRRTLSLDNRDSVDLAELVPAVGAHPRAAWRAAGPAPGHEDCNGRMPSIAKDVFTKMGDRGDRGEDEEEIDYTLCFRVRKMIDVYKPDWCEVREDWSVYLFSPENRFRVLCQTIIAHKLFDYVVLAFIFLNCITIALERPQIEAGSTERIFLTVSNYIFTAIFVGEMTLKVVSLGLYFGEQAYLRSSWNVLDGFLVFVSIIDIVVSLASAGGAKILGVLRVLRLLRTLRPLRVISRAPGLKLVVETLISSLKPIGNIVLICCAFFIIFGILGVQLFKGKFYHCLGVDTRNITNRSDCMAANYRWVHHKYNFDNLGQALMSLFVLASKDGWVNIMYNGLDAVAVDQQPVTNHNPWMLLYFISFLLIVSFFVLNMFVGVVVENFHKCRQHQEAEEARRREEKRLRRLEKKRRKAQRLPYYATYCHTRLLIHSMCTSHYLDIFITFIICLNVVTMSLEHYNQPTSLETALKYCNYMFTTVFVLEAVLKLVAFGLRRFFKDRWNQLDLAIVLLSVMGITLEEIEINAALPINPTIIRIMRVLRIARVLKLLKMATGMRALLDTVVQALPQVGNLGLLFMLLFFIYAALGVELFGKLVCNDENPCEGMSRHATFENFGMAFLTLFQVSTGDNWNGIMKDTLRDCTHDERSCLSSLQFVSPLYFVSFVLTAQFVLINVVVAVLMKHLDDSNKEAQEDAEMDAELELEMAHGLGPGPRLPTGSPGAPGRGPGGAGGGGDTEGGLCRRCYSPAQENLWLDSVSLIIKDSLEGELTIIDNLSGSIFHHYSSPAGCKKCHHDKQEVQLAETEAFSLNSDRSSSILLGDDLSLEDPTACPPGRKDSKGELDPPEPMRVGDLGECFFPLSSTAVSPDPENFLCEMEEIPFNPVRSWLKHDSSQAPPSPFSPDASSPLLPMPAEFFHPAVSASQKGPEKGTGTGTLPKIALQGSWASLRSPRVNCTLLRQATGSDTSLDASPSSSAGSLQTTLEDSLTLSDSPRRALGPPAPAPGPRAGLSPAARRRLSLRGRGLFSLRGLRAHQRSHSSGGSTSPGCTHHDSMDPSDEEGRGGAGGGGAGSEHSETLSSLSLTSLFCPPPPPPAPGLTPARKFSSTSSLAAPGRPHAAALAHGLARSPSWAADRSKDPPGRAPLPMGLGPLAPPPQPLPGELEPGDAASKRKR
# Pharmacokinetics in rats = format: in vivo, rat; conditions: for Ratio of AUC24 (metabolite/CX-8998): Rat, single oral dose 10 mg/kg of CX-8998; for AUC: rat, plasma, po, 10 mg/kg, read-out: AUC24
# Description: (§2) The validity and reproducibility of the assays were determined, and the precision and accuracy for calibration standards and quality control samples were examined. […] The analytes were stable in plasma under the storage and assay conditions. […] Assay performances were satisfactory and met acceptance criteria for system performance suitability, quantitation range, calibration linearity, assay accuracy and precision, and assay recovery.
# Pharmacokinetics in dogs = format: in vivo, dog
# Description: as §2
# [3] = Pharmacokinetics in rhesus monkeys; format: in vivo, rhesus monkey
# Description: as §2
# [4] = In vitro plasma protein binding, monkey; format: in vitro ADME
# Description: CX-8998 distributes readily to the brain in rats and to brain and cerebral spinal fluid (CSF) in dogs.
# [5] = In vitro plasma protein binding, human; format: in vitro ADME
# P-glycoprotein = P-glycoprotein bidirectional transport; format: in vitro ADME, human, monkey, and rat
# Description: (§1) Glucuronide conjugates of the oxygenated metabolites are detected in human, monkey, and dog hepatocyte preparations. […] However, the abundance of CYP3A5, CYP2C19, and CYP2D6 in human liver microsomes is low (2%-5%) relative to the primary contributors, CYP3A4 (˜30%) and CYP2C9 (˜20%). […] Information on reproductive and developmental toxicology was obtained in a 28-day pivotal female fertility study in rats and in preliminary embryo-fetal development studies in rats and rabbits.
# [6] = target: T2, breast cancer resistance protein (BCRP) (Homo sapiens, UniProt Q9UNQ0); test: BCRP transport; format: in vitro ADME; conditions: 30 μM
# T2 sequence (Q9UNQ0 1-655): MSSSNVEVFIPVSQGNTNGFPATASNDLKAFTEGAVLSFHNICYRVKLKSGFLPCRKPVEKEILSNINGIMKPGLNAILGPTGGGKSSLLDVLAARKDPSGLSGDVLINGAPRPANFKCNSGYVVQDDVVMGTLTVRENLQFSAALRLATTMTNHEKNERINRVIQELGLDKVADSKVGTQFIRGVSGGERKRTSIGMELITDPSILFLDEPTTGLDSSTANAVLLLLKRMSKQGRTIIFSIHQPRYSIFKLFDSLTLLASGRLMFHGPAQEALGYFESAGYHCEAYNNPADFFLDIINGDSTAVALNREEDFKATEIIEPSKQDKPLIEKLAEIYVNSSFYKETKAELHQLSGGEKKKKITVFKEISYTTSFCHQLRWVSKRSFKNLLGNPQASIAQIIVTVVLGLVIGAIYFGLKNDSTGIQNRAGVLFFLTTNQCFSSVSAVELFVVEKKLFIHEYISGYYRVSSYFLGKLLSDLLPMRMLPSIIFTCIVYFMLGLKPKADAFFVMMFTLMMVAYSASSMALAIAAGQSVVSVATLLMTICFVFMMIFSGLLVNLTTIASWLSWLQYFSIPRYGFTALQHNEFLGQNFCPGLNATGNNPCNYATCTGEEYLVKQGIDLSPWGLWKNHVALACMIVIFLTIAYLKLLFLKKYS
# Description: as §1
# [7] = test system: CYP1A2, CYP3A4, CYP2C8, CYP2C9, CYP2C19, CYP2D6, CYP2B6; test: CYP inhibition in human liver microsomes; format: in vitro ADME
# [8] = for Day 90 Free Margin for AUC24 at NOAEL for Dog 90-Day Toxicology / Day 90 Free Plasma AUC24 at NOAEL for Dog 90-Day Toxicology: Beagle; for Day 90 Free Plasma AUC24 at NOAEL for Dog 90-Day Toxicology: 30 mg/kg/day; for Day 90 Free Plasma AUC24 at NOAEL for Rat 90-Day Toxicology: 300 mg/kg/day
# in vivo = conditions: rat, po
# clinical = conditions: human, plasma, oral, 8 mg
# Description: Subjects will be screened for study eligibility within 28 days before administration of the first dose of study drug. Subjects who meet the study eligibility criteria will be admitted to the clinical research unit in the afternoon of the day before administration of the first dose of study drug (Period 1/Day −1).
# Treatments A, B, and C will be separated by a minimum 7-day washout period. […] Administration of Treatment D may be separated from administration of Treatments A, B, and C by approximately 4 weeks to allow for analysis of the bioanalytical samples from the first 3 treatments.
# [9] = 4-week oral toxicology in Beagle dogs; conditions: dog, in vivo
# [10] = Crossover bioavailability study IR vs MR1 vs MR2 capsules: PK; set-up: AUC72hr: unit not given beside the values; conditions: for AUC72hr Ratio / Cmax Ratio: metabolite to CX-8998; for AUC72hr / Cmax / Tmax: plasma
# [11] = simulated from CX-8998 10 mg BID
# [12] = single 8 mg dose of MR1 CX-8998
# [13] = single 8 mg dose of MR2 CX-8998
# [14] = following a single 8 mg dose of MR1 CX-8998
# [15] = following a single 8 mg dose of MR2 CX-8998
smiles,measurement,setting,value
C=C(C)c1ccc(CC(=O)N[C@H](C)c2ccc(OCC(F)(F)F)cn2)cc1 [M01],"AUCinf, middle-aged and elderly female vs male subjects",[1],2% lower
same,"Cmax, middle-aged and elderly female vs male subjects",[1],12% lower
same,Potency relative to CX-8998,[2],1.57
same,"Css, estimated mean",[2]; middle-aged and elderly men,1167 nM
same,"Steady-state AUC24, estimated mean",[2]; middle-aged and elderly men,28.008 µM·h
same,"Css, estimated mean",[2]; middle-aged and elderly women,1146 nM
same,"Steady-state AUC24, estimated mean",[2]; middle-aged and elderly women,27.504 µM·h
same,"Css, estimated mean",[2]; young men,771 nM
same,"Steady-state AUC24, estimated mean",[2]; young men,18.504 µM·h
same,"Cu, ss_adj","[2]; adjusted for fu and potency, 10 mg BID",<1.2 nM
same,"Cp, ss",[2]; [11],771 nM
same,"Cu, ss",[2]; [11],<0.8 nM
same,IC50,"Cav3.3; depolarized, read-out: Depolarized FLIPR potency",2.3 nM
same,IC50,"Cav3.3; hyperpolarized, read-out: Hyperpolarized FLIPR potency",86 nM
same,State dependence,Cav3.3; hyperpolarized versus depolarized FLIPR potency,37 fold
same,Ratio of AUC24 (metabolite/CX-8998),Pharmacokinetics in rats; Female,0.52
same,Ratio of AUC24 (metabolite/CX-8998),Pharmacokinetics in rats; Male,0.63
same,AUC,Pharmacokinetics in rats; female,8.7 µM·h
same,AUC,Pharmacokinetics in rats; male,3.7 µM·h
same,Ratio of AUC24 (metabolite/CX-8998),"Pharmacokinetics in dogs; Dog, Male, single oral dose 0.5 mg/kg of CX-8998",0.21
same,AUC,"Pharmacokinetics in dogs; male, dog, plasma, po, 0.5 mg/kg, read-out: AUC24",1.4 µM·h
same,Ratio of AUC24 (metabolite/CX-8998),"[3]; Monkey, Male, single oral dose 2 mg/kg of CX-8998",0.24
same,AUC,"[3]; male, rhesus monkey, plasma, po, 2 mg/kg, read-out: AUC24",0.5 µM·h
same,fraction unbound,[4],0.004
same,fraction unbound,"[5]; human plasma, read-out: Human-free fraction",< 0.001
same,fraction unbound,"[5]; human plasma, read-out: In vitro plasma protein binding (converted)",< 0.001
same,fraction unbound,"[5]; humans, read-out: free fraction",< 0.001
same,P-glycoprotein substrate or inhibitor activity,P-glycoprotein,did not demonstrate any activity as a substrate or inhibitor
same,Inhibition of BCRP transport,[6],57%
same,Time-dependent inhibition of CYP3A4 or CYP2B6,[7],insignificant
same,Day 90 Free Margin for AUC24 at NOAEL for Dog 90-Day Toxicology,[8]; female,>16
same,Day 90 Free Plasma AUC24 at NOAEL for Dog 90-Day Toxicology,[8]; female,<309 nM · hr
same,Day 90 Free Margin for AUC24 at NOAEL for Rat 90-Day Toxicology,[8]; female,>49
same,Day 90 Free Plasma AUC24 at NOAEL for Rat 90-Day Toxicology,[8]; female,<936 nM · hr
same,Day 90 Free Margin for AUC24 at NOAEL for Dog 90-Day Toxicology,[8]; male,>19
same,Day 90 Free Plasma AUC24 at NOAEL for Dog 90-Day Toxicology,[8]; male,<363 nM · hr
same,Day 90 Free Margin for AUC24 at NOAEL for Rat 90-Day Toxicology,[8]; male,>26
same,Day 90 Free Plasma AUC24 at NOAEL for Rat 90-Day Toxicology,[8]; male,<500 nM · hr
same,AUC,"in vivo; female, 5 mg/kg",5.02 µM·h
same,AUC,"in vivo; female, 15 mg/kg",20.3 µM·h
same,AUC,"in vivo; female, 100 mg/kg",231 µM·h
same,AUC,"in vivo; female, 300 mg/kg",234 µM·h
same,AUC,"in vivo; male, 5 mg/kg",4.33 µM·h
same,AUC,"in vivo; male, 15 mg/kg",11.3 µM·h
same,AUC,"in vivo; male, 100 mg/kg",85.9 µM·h
same,AUC,"in vivo; male, 300 mg/kg",125 µM·h
same,AUC(0-t),clinical,6.88 µM·h
same,Cmax,clinical,124 nM
same,Tmax,clinical,29 h
same,Safety margin (AUC24) at the NOEL over expected clinical exposure,[9],~6 fold
same,AUC72hr Ratio,[10]; single 8 mg dose of IR CX-8998,0.92
same,Cmax Ratio,[10]; single 8 mg dose of IR CX-8998,0.14
same,AUC72hr Ratio,[10]; [12],0.95
same,Cmax Ratio,[10]; [12],0.27
same,AUC72hr Ratio,[10]; [13],0.90
same,Cmax Ratio,[10]; [13],0.35
same,AUC72hr,[10]; [14],7118
same,Cmax,[10]; [14],121 nM
same,Tmax,[10]; [14],26 h
same,AUC72hr,[10]; [15],6395
same,Cmax,[10]; [15],113 nM
same,Tmax,[10]; [15],39 h

# From patent US11311522B1 (Cavion, Inc., priority 2018, dated 2022)
